# Publication PMC4336331, “Novel Receptor-Derived Cyclopeptides to Treat Heart Failure Caused by Anti-β1-Adrenoceptor Antibodies in a Human-Analogous Rat Model” (PLoS ONE, 2015)
# Columns and labels:
# [1] = test system: rat anti-β1EC2; assay: Competition-ELISA, blocking of rat anti-β1EC2; assay type: binding; details: preincubation (12h, 4°C) with 40-fold excess of peptide; linear β1EC2-peptides (AA199-223) as antigen; n = 20 (Fig. 1B)
# [2] = test system: anti-β1EC2-induced β1-AR/cAMP signaling in HEKβ1-cells; assay: FRET cAMP assay (Epac1-camps), blockade of anti-β1EC2-induced signals; assay type: cell-based, human; details: HEKβ1-cells with Epac1-camps FRET-sensor; IgG pre-incubated with peptide (Fig. 1F)
# Protocol: The effects of anti-β1EC2 on β1AR-mediated intracellular cAMP-production were assessed by measuring fluorescence resonance energy transfer (FRET) in HEKβ1-cells transiently transfected with a FRET-sensor for cAMP, Epac1-camps. The sensor consists of the cAMP-binding protein Epac1 flanked by enhanced cyan or yellow fluorescent protein. […] IgG-preparations were added to the cells at 0.13 μg/μl protein concentration; 2μM (-)isoproterenol (Sigma) was used as a reference to determine the maximal cAMP-response. To test the blocking-efficacy of β1EC2-CP on anti-β1EC2-induced adrenergic signaling, the different IgG-preparations were pre-incubated with β1EC2-CP (20 μg/μl) for 6 h at 4 °C; for pharmacological blockade of anti-β1EC2-induced signals we utilised 5.0μM bisoprolol.
# (D) Immunostaining experiments with rat anti- β1EC2 (1:100) using HEK-cells stably expressing β1-ARs (HEK β1) or not (wild type; HEK WT). IgG was prepared from anti- β1EC2-positive rats or 0.9% NaCl-injected control rats. Amino-terminal β1AR-specific rabbit anti-bodies (1:250) served as positive controls. […] HEK β1-cells were transfected with the cAMP-sensor Epac1-camps, which reacts to cAMP-binding with a reduction in fluorescence resonance energy transfer (FRET) between its fluorophores cyan (CFP) and yellow fluorescent protein (YFP). […] Representative FRET-ratio traces of 1/5 experiments are shown. Values are given in % of maximal cAMP-response achieved with 0.3μM (-)isoproterenol (Iso).
substance,measurement,setting,value
"cyclo(RATHQEAINCYANETCCDFFTNQG) (cysteine pairing not given here) [β2EC2-CP, control for specificity, reference compound]","blocking of anti-β1EC2 in competition-ELISA, in words",[1],not blocked at all
same,"blockade of anti-β1EC2-induced cAMP-signals, in words",[2],not blocked at all
